Values of other authors, collected in paper PMC7113672 (Antiviral Research, 2014).

Columns and labels:
SARS-CoV = conditions: in vivo
[1] = test system: other cysteine proteases such as the coronaviral main protease, cathepsins B, K, L, and S, and papain
[2] = test system: influenza A/WSN/1933 (H1N1) virus

SMILES	efficacy against SARS-CoV (SARS-CoV)	effect of combination on replication of MERS-CoV (MERS-CoV)	EC50 (MERS-CoV; read-out: EC50, inhibition of MERS-CoV replication) [µM]	inhibition of other cysteine proteases [1]	selectivity index [2]	EC50 ([2]; read-out: EC50, protective effect against influenza A/WSN/1933 (H1N1) virus) [µM]
COc1c(C)c2c(c(O)c1C/C=C(\C)CCC(=O)O)C(=O)OC2 [Mycophenolic acid]	ineffective	synergistically inhibit	0.27	–	–	–
Nc1nc2nc[nH]c2c(=S)[nH]1 [6TG, 6-Thioguanine]	–	–	–	do not inhibit	–	–
Sc1ncnc2nc[nH]c12 [6MP, 6-Mercaptopurine]	–	–	–	do not inhibit	4	26.5
